In patent US20030158251A1, “Methods, pharmaceutical compositions and articles of manufacture for treating disorders associated with abnormal cell proliferation and apoptosis” (priority 2002, published 2003):
Where a SMILES comes first, the peptide text is derived from it. The star is where a group is joined. Cbz = O=C(OCc1ccccc1)*

Columns and labels:
p53 [1] = test: Proteasome inhibitor block of dicoumarol-induced p53 elimination in HCT116 cells; assay type: cell-based, human; conditions: HCT116, 4 hrs with dicoumarol; 100 micromolar MG 132 or 40 micromolar lactacystin
Protocol: FIGS. 2a-b illustrate that proteasomal degradation is responsible for the dicoumarol-induced p53 decrease in cells. […] Immunoblots were carried out as in FIG. 1.
Cell extracts were prepared by lysis of PBS-washed cells in RIPA lysis buffer [150 mM NaCl, 1% NP-40 (vol/vol), 0.5% AB-deoxycholate (DOC vol/vol), 0.1% SDS (vol/vol), 50 mM Tris-Hcl pH 8, 1 mM dithiotireitol (DTT) and 1 micogram/ml each of leupeptin, aprotinin, pepstatin (Sigma cocktail)]. The insoluble pellet was discarded and protein concentration was determined using Bradford reagent (BioRad). Equal amounts of protein were mixed with Laemmli sample buffer (4% SDS, 20% glycerol, 10% 2-mercaptoeftanol and 0.125M Tris-Hcl), heated at 95° C. for 5 min and loaded on an 8% polyacrylamide-SDS gel. Following electophoresis, proteins were transferred to cellulose nitrate 0.45 micrometer membranes (Schleicher & Schuell, Dassel, Germany). Loading equivalence and transfer efficiency were monitored by Ponceau S staining and the membranes were then incubated with appropriate antibodies to proteins of interest followed by horse-radish peroxidase conjugated anti-IgG antibodies. […]
It is well documented that p53 accumulation is determined by the rate of its proteasomal degradation (reviewed in refs. 1,2).

p53 [2] = test: Immunoblot of p53 level in M1-t-p53 cells; assay type: cell-based, mouse
Protocol: Immunoblot analysis was carried out using Pab 240 monoclonal anti p53 antibody. The blots were then stripped and re-probed with anti I-kappa-B and anti beta-tubulin antibody.
Immunoblot analysis was carried out using Pab 240 monoclonal anti p53 antibody and hamster anti mouse Bcl-2. FIG. 11a is an immunoblot of cell extracts from M1-t-p53 myeloid leukemic cells cultured for 6h at 32° C. or 37° C. without or with different concentrations of radicicol. Antibodies are indicated at left. FIG. 11b is an immunoblot of cell extracts from cells cultured at 32° C. for 6 or 2 h without (−) or with (+) 1 μM radicicol. Cells were also preincubated for 4 h at 32° C. and then cultured with 1 μM radicicol or 1 μM geldanamycin (geldan.) for 2 h (2 h*).
(§1) The cell lines used were: HCT116 human colon carcinoma cells, HCT116 HA-NQO1 over-expressing cells (45), p53 null HCT116 cells (Bunz, F., Dutiaux, A., Lengauer, C., Waldman, T., Zhou, S., Brown, J. P., Sedivy, J. M., Kinzler, K. W. & Vogelstein, B. (1998) Science 282, 1497-1501.), COS 1 monkey kidney cells, normal thymocytes obtained from 2.5 month old Balb/C mice and M1-t-p53 mouse myeloid leukemic cells that express a temperature-sensitive mutant p53 [Val-135] protein (Yonish-Rouach, E., Resnitzky, D., Lotem, J., Sachs, L., Kimchi, A. & Oren, M. (1991) Nature 352, 345-347).
(§2) The p53 in M1-t-p53 cells behaves like a tumor-suppressing wild-type p53 at 32° C. and like a mutant p53 at 37° C. (24). HCT116 and COS 1 cells were grown in Dulbecco's modified Eagle's medium (DMEM) supplemented with 10% fetal bovine serum (FBS), […] penicillin, and 100 µg/ml streptomycin and cultured at 37° C. in a humidified incubator with 5.6% C02. Normal thymocytes and M1-t-p53 cells were grown in DMEM supplemented with 10% heat inactivated (56° C., 30 min) horse serum and cultured at 37° C. in an incubator with 10% […].
(§3) Cell extracts were prepared by lysis of PBS-washed cells in RIPA lysis buffer [150 mM NaCl, 1% NP-40 (vol/vol), 0.5% AB-deoxycholate (DOC vol/vol), 0.1% SDS (vol/vol), 50 mM Tris-Hcl pH 8, 1 mM dithiotireitol (DTT) and 1 micogram/ml each of leupeptin, aprotinin, pepstatin (Sigma cocktail)]. The insoluble pellet was discarded and protein concentration was determined using Bradford reagent (BioRad). Equal amounts of protein were mixed with Laemmli sample buffer (4% SDS, 20% glycerol, 10% 2-mercaptoeftanol and 0.125M Tris-Hcl), heated at 95° C. for 5 min and loaded on an 8% polyacrylamide-SDS gel. Following electophoresis, proteins were transferred to cellulose nitrate 0.45 micrometer membranes (Schleicher & Schuell, Dassel, Germany). Loading equivalence and transfer efficiency were monitored by Ponceau S staining and the membranes were then incubated with appropriate antibodies to proteins of interest followed by horse-radish peroxidase conjugated anti-IgG antibodies. Signals were developed using Super Signal (Pierce Poxkford, USA) at 20° C. for 5 min and the membranes were then exposed to X-ray film (Fuji Tokyo, Japan) for an appropriate time and developed. Membranes were stripped using 50 mM citric acid before using a different primary antibody. The antibodies used were; Monoclonal anti human p53 (Pab 1801) (26), monoclonal anti mouse and human p53 (Pab240), monoclonal anti I-kappa-B (Santa Cruz Biotechnology, Santa Cruz, Calif., USA), monoclonal anti beta-tubulin and anti HA (Sigma Chemical, St. Louis, Mo.).
(§4) These cells are viable and proliferate at 37° C. when the p53 behaves like a mutant form, but undergo apoptosis at 32° C. when the p53 behaves like wild-type (3).
Because interleukin 6 (IL-6) and the calcium mobilizing compound thapsigargin (TG) are known to be efficient anti-apoptotic agents in M1-t-p53 cells (3, 31), the effect of these compounds on p53 stability was also investigated. […] (FIG. 6a).

p53 [3] = test: Immunoblot of p53 level in HCT116 cells treated with dicoumarol; assay type: cell-based, human; conditions: for p53 level: HCT116 cells, 400 micromolar dicoumarol; for accumulation of p53 upon γ-irradiation: HCT116 γ-irradiated at 6 Gy, 4 hrs
Protocol: Protein levels of each lane probed were calibrated by probing with monoclonal anti beta-tubulin antibody. Dic—Dicoumarol.
as §3
Blots were stripped and re-probed with monoclonal anti beta-tubulin antibody as a control for equal protein loading in each lane.
Since it is known that irradiation cause accumulation of p53 within cells, an additional event was conducted on irradiated cells. […] As expected, p53 accumulated upon γ-irradiation (compare FIG. 1b lanes 1 and 2).

p53 [4] = test: Immunoblot of p53 level in COS 1 cells expressing SV40 large T antigen; assay type: cell-based, monkey; conditions: COS 1 cells gamma irradiated at 6 Gy, up to 400 micromolar, 4 hrs
Protocol: Cell extracts were prepared by lysis of PBS-washed cells in RIPA lysis buffer [150 mM NaCl, 1% NP-40 (vol/vol), 0.5% AB-deoxycholate (DOC vol/vol), 0.1% SDS (vol/vol), 50 mM Tris-Hcl pH 8, 1 mM dithiotireitol (DTT) and 1 micogram/ml each of leupeptin, aprotinin, pepstatin (Sigma cocktail)]. The insoluble pellet was discarded and protein concentration was determined using Bradford reagent (BioRad). Equal amounts of protein were mixed with Laemmli sample buffer (4% SDS, 20% glycerol, 10% 2-mercaptoeftanol and 0.125M Tris-Hcl), heated at 95° C. for 5 min and loaded on an 8% polyacrylamide-SDS gel. Following electophoresis, proteins were transferred to cellulose nitrate 0.45 micrometer membranes (Schleicher & Schuell, Dassel, Germany). Loading equivalence and transfer efficiency were monitored by Ponceau S staining and the membranes were then incubated with appropriate antibodies to proteins of interest followed by horse-radish peroxidase conjugated anti-IgG antibodies. Signals were developed using Super Signal (Pierce Poxkford, USA) at 20° C. for 5 min and the membranes were then exposed to X-ray film (Fuji Tokyo, Japan) for an appropriate time and developed. Membranes were stripped using 50 mM citric acid before using a different primary antibody. […]

normal thymocytes = test: Apoptosis in gamma irradiated normal thymocytes; assay type: cell-based, mouse
Description: as §1
(§5) Apoptosis in normal thymocytes was induced by gamma irradiation 4 Gy (Co^60 source 0.63 Gy/min) and in M1-t-p53 cells by culture at 32° C. The percentage of apoptotic thymocytes was determined on May-Grünwald-Giemsa-stained cytospin preparations by counting 400 cells 5 hrs post gamma-irradiation. Apoptotic cells were scored by their smaller size, condensed chromatin, and fragmented nuclei compared with non-apoptotic cells. Analysis of DNA fragmentation during apoptosis in thymocytes was performed by DNA agarose gel electophoresis as described (27). Apoptotic M1-t-p53 cells undergo secondary changes including uptake of trypan-blue (28). The percent of viable cells (non apoptotic and not stained with trypan-blue) was determined by counting 400 cells in a hemocytometer after 23 hrs at 32° C.

p53 [5] = test: Immunoblot of p53 level in gamma irradiated normal thymocytes; assay type: cell-based, mouse; conditions: for wild-type p53 accumulation: γ-irradiated normal thymocytes, 2 h, 200 μM dicoumarol, 5 μM radicicol or 5 μM geldanamycin
Protocol: Cell extracts were prepared after 2 h and apoptosis was determined after 5 h.

[6] = system: M1-t-p53 myeloid leukemic cells; test: cells
Protocol: Cell viability was determined 23 h after culture at 32° C.
as §1, §2, §5, §4

p53 [7] = test: Dicoumarol-induced p53 degradation in transfected p53 null HCT116 cells; assay type: cell-based, human; conditions: 5 h
Protocol: Antibodies used to probe and reprobe the blots are indicated at the left. Stripping and reprobing was as for FIGS. 8 and 9.
Transfection: Cells were seeded at 60% confluence in 6-well plates 16 h before transfection with the desired plasmids. Transfections were carried out by the calcium phosphate method followed by a 10% glycerol shock for 30 seconds, 7 h post transfection. The exact amount of plasmid used in each experiment is indicated in the corresponding figure legend. Whenever needed an empty vector was used to maintain a constant amount of 5 μg total DNA in each transfection mix. Cell extracts were generally prepared 24 h after transfection.
as §3, with “The antibodies used were; Monoclonal anti human p53 (Pab 1801) (26), monoclonal anti mouse and human p53 (Pab240), monoclonal anti I-kappa-B (Santa Cruz Biotechnology, Santa Cruz, Calif., USA), monoclonal anti beta-tubulin and anti HA (Sigma Chemical, St. Louis, Mo.).” left out

p53 [8] = test: Immunoblot of p53 accumulation in 7-M12 myeloid leukemic cells; assay type: cell-based; conditions: 7-M12 cells; for accumulation of p53 following γ-irradiation or doxorubicin treatment: 2 h, 100 μM dicoumarol or 5 μM radicicol
Protocol: Immunoblot analysis was carried out using PAb 240 monoclonal anti p53 antibody and rabbit anti IκB FIG. 13a is an immunoblot of extracts from 7-M12 cells which were either not treated (none), γ-irradiated at 0.4 Gy or treated with 2.1 μM doxorubicin (Dox.). […] Cell extracts were prepared after 2 h and apoptosis was determined after 5 h.

thymocytes = test: Dexamethasone induced apoptosis in thymocytes; assay type: cell-based, mouse; conditions: for apoptotic cells: dexamethasone treated thymocytes, from 42±3% without inhibitor
Description: Accumulation of p53 in γ-irradiated or doxorubicin treated 7-M12 myeloid leukemic cells (28) induces expression of mdm2 and waf-1.

[9] = 32° C., 6 hrs, 10 nanomolar TG or 50 ng/ml IL-6
[10] = Mus musculus, 23 h, read-out: cell viability

## CC(C)C[C@@H](C=O)NC(=O)[C@H](CC(C)C)NC(=O)[C@H](CC(C)C)NC(=O)OCc1ccccc1 [MG132] (Cbz-Leu-Leu-Leu-aldehyde)
p53 [1]
  block of dicoumarol-induced p53 elimination: completely blocked

## C/C=C(/C)C(=O)O[C@H]1C(C)=C2[C@H]([C@@H]1OC(=O)CCCCCCC)[C@@](C)(OC(C)=O)C[C@H](OC(=O)CCC)[C@@]1(O)[C@H]2OC(=O)[C@@]1(C)O [TG, thapsigargin]
p53 [2]; [9]
  p53 level: did not cause a reduction in p53 level

## O=c1oc2ccccc2c(O)c1Cc1c(O)c2ccccc2oc1=O [dicoumarol, 13-3′-methylene bis (4-hydroxycoumarin)]
p53 [3]; HCT116, same conditions as the p53 blots (specificity control)
  level of beta-tubulin: unaffected
p53 [3]; 90 min
  p53 level: significant reduction in p53 level
p53 [3]; 180 min
  p53 level: almost complete elimination of p53
p53 [3]; 200 micromolar
  accumulation of p53 upon γ-irradiation: reduced
p53 [3]; 400 micromolar
  accumulation of p53 upon γ-irradiation: further reduced
p53 [4]
  p53 level: not reduced
Normal thymocytes; 4 Gy gamma irradiated thymocytes, 100 and 200 micromolar, 5 hrs, dose dependent
  induction of apoptosis (morphology and DNA fragmentation): inhibited induction of apoptosis
Normal thymocytes; 4 Gy gamma irradiated thymocytes, 200 micromolar
  inhibition of apoptosis: Complete inhibition of apoptosis
Normal thymocytes; γ-irradiated normal thymocytes, 5 h, 200 μM dicoumarol or 5 μM hsp90 inhibitor
  induction of apoptosis: completely inhibited
p53 [5]; 4 Gy gamma irradiated thymocytes, 100 and 200 micromolar, 5 hrs
  level of p53: decrease in the level of p53
p53 [5]
  wild-type p53 accumulation: completely inhibited
[6]; M1-t-p53 cells, 32° C., 23 hrs, 75 or 100 micromolar
  cell survival compared to cells without dicoumarol: increase in cell survival
[6]; Mus musculus, read-out: cell viability
  viability at 75 µM: 52 ± 4%
p53 [2]; 32° C., 6 hrs, 100 micromolar
  level of I-kappa-B: did not affect
p53 [2]; 32° C., 16 hrs, 75 or 100 micromolar dicoumarol
  p53 level: reduced
p53 [2]; 37° C., 6 hrs, 100 micromolar
  degradation of I-kappa-B or beta-tubulin: not of I-kappa-B or beta-tubulin
  degradation of mutant p53: induce degradation of p53
p53 [7]; p53 null HCT116 co-transfected with p53 and LT, 300 μM
  dicoumarol induced p53 degradation: resistant to dicoumarol induced p53 degradation
p53 [7]; p53 null HCT116 transfected only with p53, 300 μM
  dicoumarol induced p53 degradation: sensitive to dicoumarol induced p53 degradation
p53 [7]; transfected p53 null HCT116, 300 μM
  levels of Mdm-2 and LT: not affected
p53 [8]
  accumulation of p53 following γ-irradiation or doxorubicin treatment: inhibited

## COC1=C2C[C@@H](C)C[C@H](OC)[C@H](O)[C@@H](C)/C=C(\C)[C@H](OC(N)=O)[C@@H](OC)/C=C\C=C(/C)C(=O)NC(=CC1=O)C2=O [geldanamycin]
[6]; [10]
  viability at 0.1 µM: 90 ± 4%
thymocytes
  apoptotic cells: 5±2%

## CC(=O)N[C@@H](CSC(=O)[C@]1([C@@H](O)C(C)C)NC(=O)[C@H](C)[C@@H]1O)C(=O)O [lactacystin]
p53 [1]
  block of dicoumarol-induced p53 elimination: completely blocked

## C[C@@H]1C[C@H]2O[C@@H]2/C=C\C=C\C(=O)Cc2c(Cl)c(O)cc(O)c2C(=O)O1 [radicicol]
p53 [5]
  wild-type p53 accumulation: only a weak inhibition
[6]; M1-t-p53 cells cultured at 32° C., 23 h
  suppression of wild-type p53 induced apoptosis: strongly suppressed
[6]; [10]
  viability at 0.1 µM: 90 ± 4%
p53 [2]; 32° C., 2 h, 1 μM, also after 4 h preincubation at 32° C.
  p53 level: decrease in p53 level
p53 [2]; 32° C., 6 h incubation
  level of p53 in its wild-type form: strong decrease in the level of p53
p53 [2]; 37° C., 6 h incubation
  level of p53 in its mutant form: strong decrease in the level of p53
p53 [2]; 6 h incubation, same conditions
  level of Bcl-2: no change
p53 [8]; 5 μM radicicol versus 100 μM dicoumarol
  inhibition of p53 accumulation relative to dicoumarol: stronger effect
p53 [8]
  accumulation of p53 following γ-irradiation or doxorubicin treatment: inhibited
thymocytes
  apoptotic cells: 5±2%
thymocytes; thymocytes
  suppression of dexamethasone induced apoptosis: strongly suppressed

B1: IL6: interleukin 6, anti-apoptotic agent in M1-t-p53 cells (protein, UniProt P08505 25-211, looked up)
Interleukin-6: FPTSQVRRGDFTEDTTPNRPVYTTSQVGGLITHVLWEIVEMRKELCNGNSDCMNNDDALAENNLKLPEIQRNDGCYQTGYNQEICLLKISSGLLEYHSYLEYMKNNLKDNKKDKARVLQRDTETLIHIFNQEVKDLHKIVLPTPISNALLTDKLESQKEWLRTKTIQFILKSLEEFLKVTLRSTRQT
p53 [2]; [9]
  p53 level: did not cause a reduction in p53 level
